Some test systems named below: A498 renal; ACHN renal; CCRF-CEM leukemia; HOP-92 NSCLC; HT29 colon; OVCAR-3 ovarian; RPMI-8226 leukemia; RXF 393 renal; SK-MEL-28 melanoma; TK-10 renal.
What all share (experiment): DTP human tumour cell line panel, 48 h

Molecules are shown by their SMILES. “And” between values parts separate entries of the source, which are not always exact repeats. Equal entries are not always repeated.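 Values below derive from 48-hour exposures of cells grown in 96-well plates, with endpoints linearly interpolated between the two concentrations bracketing the appropriate inhibition level. GI50 = concentration required for 50% inhibition of growth. TGI denotes the concentration required for complete inhibition of growth.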 Where a SMILES comes first, the peptide text is derived from it. [ ]: non-standard residue; d: D form. Orn = NCCC[CH](N)C(=O)O Where only a bound is given, the exact number is not on record here.

Take `Cc1cc(Cl)ccc1Nc1nc(C(F)(F)F)ccc1C(=O)N/N=C/c1c(Cl)cccc1Cl`: the GI50 is 0.473 µM in the experiment on A498 renal; 0.298 µM in the experiment on ACHN renal; 0.107 µM in the experiment on CCRF-CEM leukemia; 0.221 µM in the experiment with HOP-92 NSCLC; 0.443 µM in the experiment with HT29 colon; 0.102 µM in the experiment with OVCAR-3 ovarian. Besides, the GI50 is 0.194 µM in the experiment with RPMI-8226 leukemia, 2.04 µM in the experiment with RXF 393 renal, 0.806 µM in the experiment on SK-MEL-28 melanoma and 0.316 µM in the experiment with TK-10 renal. Besides, the TGI in the experiment on A498 renal was above 22.8 µM; with ACHN renal, 2.03 µM; in the experiment on CCRF-CEM leukemia, above 100 µM; in the experiment with HOP-92 NSCLC it was 0.664 µM; in the experiment on HT29 colon, above 100 µM; in the experiment with OVCAR-3 ovarian it was 0.38 µM. In addition, the TGI in the experiment with RXF 393 renal was above 100 µM; in the experiment on SK-MEL-28 melanoma, above 100 µM; with TK-10 renal it was 1.79 µM.
`CCN(CC)CCCC(C)Nc1ccnc2cc(Cl)c(SCc3ccccc3)cc12` (stereo not drawn): the GI50 is 1.22 µM with A498 renal; 1.3 µM in the experiment with ACHN renal; 0.442 µM with CCRF-CEM leukemia; 1.14 µM with HOP-92 NSCLC; 0.338 µM in the experiment with HT29 colon; 2.31 µM in the experiment on OVCAR-3 ovarian. The GI50 in the experiment on RPMI-8226 leukemia was 0.633 µM; with RXF 393 renal, 1.42 µM; in the experiment with SK-MEL-28 melanoma, 1.15 µM; in the experiment on TK-10 renal, 0.512 µM. The TGI in the experiment on A498 renal came to 2.68 µM; in the experiment on ACHN renal, 2.73 µM; with CCRF-CEM leukemia it was 4.94 µM; in the experiment with HOP-92 NSCLC it was 3.2 µM; in the experiment on HT29 colon, 1.13 µM; in the experiment with OVCAR-3 ovarian it was 8.07 µM. The TGI is 2.93 µM in the experiment on RPMI-8226 leukemia, 2.78 µM in the experiment with RXF 393 renal, 2.41 µM with SK-MEL-28 melanoma and 1.6 µM in the experiment on TK-10 renal.
With `COc1ccc(/C=C/C(=O)c2ccc(NC(=O)CSc3nnc(-c4cc(OC)c(OC)c(OC)c4)o3)cc2)cc1`, the GI50 was 11 µM with A498 renal; 1.72 µM in the experiment with ACHN renal; 1.84 µM in the experiment on CCRF-CEM leukemia; 1.93 µM in the experiment on HOP-92 NSCLC; 1.83 µM in the experiment on HT29 colon; 1.78 µM with OVCAR-3 ovarian. In addition, the GI50 in the experiment with RPMI-8226 leukemia was 1.73 µM; in the experiment with RXF 393 renal, 1.74 µM; in the experiment with SK-MEL-28 melanoma, 1.74 µM; with TK-10 renal, 1.52 µM. The TGI with A498 renal was determined as 23.6 µM; in the experiment with ACHN renal it was 3.22 µM; in the experiment with CCRF-CEM leukemia, 4.56 µM; in the experiment on HOP-92 NSCLC, 4.23 µM; in the experiment with HT29 colon, 3.62 µM; in the experiment on OVCAR-3 ovarian it was 3.38 µM. Also, the TGI is 4.31 µM with RPMI-8226 leukemia, 3.54 µM in the experiment on RXF 393 renal, 3.4 µM in the experiment with SK-MEL-28 melanoma and 3.03 µM in the experiment with TK-10 renal.
For `CC(C)CC1NC(=O)C(CCCN)NC(=O)C(C(C)C)NC(=O)C2CCCN2C(=O)C(Cc2ccccc2)NC(=O)C(CC(C)C)NC(=O)C(CCCN)NC(=O)C(C(C)C)NC(=O)C2CCCN2C(=O)C(Cc2ccccc2)NC1=O` (stereo not drawn) (cyclo(FPV[Orn]LFPV[Orn]L); configuration not given here), the GI50 was 0.092 µM and 0.106 µM with A498 renal; 0.0961 µM and 0.0816 µM in the experiment on ACHN renal; 0.00814 µM with CCRF-CEM leukemia; 0.00661 µM and 0.0126 µM in the experiment on HOP-92 NSCLC; 0.0133 µM and 0.0363 µM in the experiment with HT29 colon; 0.0103 µM and 0.0322 µM in the experiment on OVCAR-3 ovarian. Also, the GI50 was < 0.00325 µM and 0.0114 µM in the experiment with RPMI-8226 leukemia; 0.0352 µM and 0.0515 µM in the experiment on RXF 393 renal; 0.0395 µM in the experiment on SK-MEL-28 melanoma; 0.0213 µM and 0.104 µM in the experiment on TK-10 renal. Moreover, the TGI in the experiment with A498 renal is 0.743 µM and 0.632 µM; in the experiment on ACHN renal, 3.25 µM and 2.21 µM; in the experiment on CCRF-CEM leukemia it was 0.32 µM; in the experiment on HOP-92 NSCLC, 0.0204 µM and 0.0545 µM; in the experiment on HT29 colon, 0.266 µM and 1.22 µM; in the experiment with OVCAR-3 ovarian, 0.211 µM and 1.43 µM. In addition, the TGI in the experiment on RPMI-8226 leukemia was 0.0309 µM and 0.185 µM; with RXF 393 renal, 0.72 µM and 1.44 µM; in the experiment on SK-MEL-28 melanoma it was 0.962 µM and 1.63 µM; in the experiment on TK-10 renal, 1.51 µM and 5.71 µM.
For the molecule `N=C(N)c1ccc(-c2ccc(-c3ccco3)o2)cc1F`, the GI50 was 1.36 µM in the experiment with A498 renal; 1.84 µM with ACHN renal; 2.77 µM in the experiment with CCRF-CEM leukemia; 0.968 µM with HOP-92 NSCLC; 1.29 µM in the experiment with HT29 colon; 3.06 µM in the experiment on OVCAR-3 ovarian. In addition, the GI50 in the experiment on RPMI-8226 leukemia was 1.95 µM; with RXF 393 renal, 1.62 µM; in the experiment on SK-MEL-28 melanoma it was 1.81 µM; with TK-10 renal, 1.69 µM. The TGI was found to be 4.83 µM in the experiment on A498 renal; 3.81 µM in the experiment with ACHN renal; 8.16 µM in the experiment with CCRF-CEM leukemia; 2.98 µM in the experiment with HOP-92 NSCLC; 3.3 µM in the experiment with HT29 colon; 9.77 µM with OVCAR-3 ovarian. Moreover, the TGI was 4.68 µM with RPMI-8226 leukemia, 3.69 µM in the experiment on RXF 393 renal, 3.67 µM in the experiment on SK-MEL-28 melanoma and 3.24 µM with TK-10 renal.
In the case of `CCOC(=O)c1c2c(n3cccc(F)c13)C(=O)c1ncccc1C2=O`, the TGI with A498 renal amounted to 21.7 µM; with ACHN renal it was 2.43 µM; in the experiment with CCRF-CEM leukemia it was 37.5 µM; in the experiment with HOP-92 NSCLC, 9.24 µM; in the experiment on HT29 colon, 5.42 µM; in the experiment with OVCAR-3 ovarian it was 2.42 µM. Moreover, the total growth inhibition concentration (TGI) worked out at 37.3 µM in the experiment with RPMI-8226 leukemia, 4.1 µM in the experiment on RXF 393 renal, 19.4 µM in the experiment with SK-MEL-28 melanoma and 27.2 µM in the experiment on TK-10 renal. Further, the GI50 was 0.0791 µM in the experiment with ACHN renal; 3.71 µM in the experiment on CCRF-CEM leukemia; 2.22 µM in the experiment with HOP-92 NSCLC; 1.34 µM in the experiment on HT29 colon; 0.22 µM in the experiment on OVCAR-3 ovarian; 1.91 µM with RPMI-8226 leukemia. The GI50 is 0.412 µM in the experiment on RXF 393 renal, 0.486 µM in the experiment with SK-MEL-28 melanoma and 0.216 µM with TK-10 renal.
With `O=C(Nc1cccc2ccccc12)c1cc2ccccc2cc1O`, the GI50 was 1.03 µM with A498 renal; 2.44 µM in the experiment on ACHN renal; 2.91 µM in the experiment on CCRF-CEM leukemia; 0.969 µM with HOP-92 NSCLC; 3.55 µM in the experiment with HT29 colon; 2.16 µM with OVCAR-3 ovarian. Further, the GI50 with RPMI-8226 leukemia is 1.41 µM; in the experiment with RXF 393 renal it was 2.71 µM; in the experiment with SK-MEL-28 melanoma, 3.58 µM; with TK-10 renal, 2.8 µM. The TGI in the experiment with A498 renal is 3.91 µM; in the experiment on ACHN renal, 7.89 µM; with CCRF-CEM leukemia, 12.1 µM; in the experiment with HOP-92 NSCLC, 4.25 µM; in the experiment on HT29 colon it was 12.4 µM; in the experiment with OVCAR-3 ovarian, 6.85 µM. Moreover, the TGI in the experiment on RPMI-8226 leukemia came out at 9.22 µM; in the experiment on RXF 393 renal, 6.68 µM; in the experiment with SK-MEL-28 melanoma, 22.4 µM; with TK-10 renal, 6.72 µM.
